Read-outs that look alike come from different tables or passages of the source.
Columns and labels:
[1] = test system: PAX6; test: PAX6 mRNA (RT-PCR) and protein (SDS-PAGE vs GAPDH) expression in human corneal epithelial cells; format: cell-based; settings: for PAX6 protein expression: human cornea epithelium cells, 48 hours of treatment
Protocol: For example, PD0325901 (PD) was tested in human corneal epithelial cells (HCEC).
HCEC were treated with a PD composition comprising 1 μM PD dissolved in culture media for up to 120 hours. PAX6 protein levels were detected by SDS-PAGE and quantified by comparing the levels of GAPDH protein (FIG. 1A). In the same treated corneal epithelial cells, PAX6 mRNA expression was measured by RT-PCR using three different primers. (FIG. 1B).
In summary, the MEK inhibition increased PAX6 mRNA and protein expressions in human corneal epithelial cells (2.7±0.2 & 3.0±0.3 folds).

[2] = test system: PAX6; test: PAX6 mRNA measurement in murine PAX6 heterozygote corneal MSCs; format: cell-based; settings: n=3
Description: Significance determined by t test. *P<0.05. Ctrl: control. RX: treatment.

[3] = test system: ERK1 and ERK2; test: Western blot of ERK1/ERK2 in human corneal epithelial cells; format: cell-based
Description: Western blot analysis of human corneal epithelial cells confirmed that this MEK inhibitor effectively and specifically suppresses ERK1 and ERK2, while having minimal effect on p38 as the control (FIG. 10).

[4] = test system: mouse model of Aniridia; format: in vivo; settings: for Corneal stromal thickness: P30, OCT, central cornea, WT 50.5±1.1 μm; for PAX6 protein expression in corneas: P30 PAX6 staining, compared to control; for corneal whole mount CK12 staining intensity: P90, Normal CK12 intensity: 100%; for Corneal scarring (ratio of scar area to total corneal area): slit lamp images
Protocol: Aniridia is a human condition with PAX6 mutation that develops corneal scarring and neovascularization. The MEK pathway is known to inhibit the PAX6 pathway, therefore it was investigated whether MEK inhibitors can indirectly stimulate PAX6 production. MEK inhibitors were tested in vivo, in a mouse model of Aniridia which allowed for investigation corneal opacification, scarring and neovascularization. Oral and topical formulations were optimized using an exemplary MEK inhibitor, such as PD0325901 (PD).
Aniridia mice were treated with or topical PD composition or vehicle, from postnatal day P5 to P30. Wild type (WT) littermates were used as normal reference. OCT and slit lamp images were used to compare the corneal epithelial/stromal thickness, clarity and scarring. H&E and immunostaining with PAX6 and Cytokeratin (CK)12 were used to compare the morphology, protein expression and differentiation. P30 PAX6 staining confirmed increase in PAX6 protein expression in corneas with both oral (2.3±0.2 folds) and topical (2.5±0.1 folds) methods (P<0.001) (oral data not shown, topical data FIG. 3A).
FIG. 2 provides the data from the topical administration of PD compositions. […] The area of scarring was measured manually based on the corneal opacification in the scar area on the slit lamp images using ImageJ (NIH). The ratio of the scar area to total corneal area was reported as a percentage. […] These measurements show the promotion of a more normal differentiation of the corneal epithelium and stroma (FIG. 2). Corneal epithelial and stromal thicknesses were measured at the central cornea and outside the scar area via OCT imaging.
Hematoxylin and eosin (H&E) staining was carried out on Aniridia cornea tissue. […] FIG. 2 provides representative H&E staining of frozen sections from day 30).
Immunohistochemical staining of the mice eyes for DAPI, PAX6 and CK12 (a marker for normal corneal epithelium) was also carried out.

[5] = test system: Aniridia mouse model; test: P90 electroretinography (ERG) in Aniridia mouse model; format: in vivo
Protocol: Retina function was assessed in the Aniridia mouse model using P90 electroretinography (ERG). Aniridia mice were treated with the PD composition described in Example 1 or vehicle.

[6] = test system: epithelial and limbal stem cell injury model; test: Corneal injury model with limbal stem cell deficiency; format: in vivo, mouse; settings: up to 1 month after injury
Protocol: The formulation was tested in an epithelial and limbal stem cell injury model, in which we injured the epithelium of the cornea up to the limbal area, creating a severe scar forming wound with limbal stem cell deficiency.
The PD composition provided in Example 1 was tested in an injury model, in which we injured the epithelium of the cornea up to the limbal area, creating a severe scar forming wound with limbal stem cell deficiency. Using an alger brush, the corneal epithelium was scraped under general anesthesia from limbus to limbus to create a limbal stem cell deficiency model. Following this injury, corneal limbal stem cell deficiency happens, similar to human disease, and the cornea becomes scarred, opacified and vascularized by time.

[7] = human corneal epithelial cells, n=3, FIG. 1

O=C(c1ccc(F)c(F)c1Nc1ccc(I)cc1F)N1CC(O)([C@@H]2CCCCN2)C1 [Cobimetinib]
PAX6 protein expression [1]: induced PAX6 protein expression | PAX6 protein measurement [1, 7]: can induce PAX6 expression

COc1cc(F)c(F)c(Nc2ccc(I)cc2F)c1NS(=O)(=O)C1(C[C@H](O)CO)CC1 [Refametinib, refametinib]
PAX6 protein expression [1]: induced PAX6 protein expression | PAX6 protein measurement [1, 7]: can induce PAX6 expression

O=C(NOC[C@H](O)CO)c1ccc(F)c(F)c1Nc1ccc(I)cc1F [PD0325901, Mirdametinib]
PAX6 mRNA measurement [1, 7]: increase in PAX6 expression | PAX6 protein measurement [1, 7]: increase in PAX6 expression | PAX6 mRNA measurement [2]: increase in PAX6 expression | ERK1/ERK2 inhibition [3]: specific ERK1/ERK2 inhibition | H&E histological pattern of cornea ([4]; frozen sections, day 30): more similar histological pattern to normal | toxicity of optimized formulation and dosage ([4]; mouse, in vivo, po): no toxicity | Corneal stromal thickness ([4]; oral): 24.7±4.1 μm | PAX6 protein expression in corneas ([4]; oral): 2.3±0.2 folds | corneal whole mount CK12 staining intensity ([4]; oral): 64±3% | Corneal scarring (ratio of scar area to total corneal area) ([4]; oral): 2.1±0.4% | Corneal stromal thickness ([4]; topical): 25.5±4.7 μm | PAX6 protein expression in corneas ([4]; topical): 2.5±0.1 folds | corneal whole mount CK12 staining intensity ([4]; topical): 69±32% | Corneal scarring (ratio of scar area to total corneal area) ([4]; topical): 2.3±0.6% | ocular/retinal function ([5]; P90 electroretinography, compared to the control group): significantly better ocular/retinal function | Photopic β wave ([5]; topical, P90 ERG): 102.1 ± 50.9 | Scotopic α wave ([5]; topical, P90 ERG): −214.5 ± 64.1 | Scotopic β wave ([5]; topical, P90 ERG): 244.8 ± 120.1 | corneal neovascularization [6]: significantly less | corneal opacity / haziness [6]: significantly less | corneal neovascularization ([6]; listed as PD): significantly reduced | corneal opacity / haziness ([6]; listed as PD): significantly reduced

— patent US20230190725A1, “MEK INHIBITORS FOR CORNEAL SCARRING AND NEOVASCULARIZATION” (THE BOARD OF TRUSTEES OF THE UNIVERSITY OF ILLINOIS, priority 2019, published 2023)
